One data set has as its target T1, human TRPV1 (Homo sapiens, UniProt Q8NER1).
T1 construct: expressed in transfected cells; host or cells: CHO-K1 cells, pCAGGS vector, clones selected by limiting dilution
The experiment in a line: Capsaicin-induced Ca influx in transformed CHO cells, FDSS-6000 (b-1), A2 value. The data set is classed as cell-based. Particulars: concentration shifting the capsaicin concentration-reaction curve two times rightward; CHO cells expressing TRPV1. From the text: (1) Measurement of Capsaicin-Induced Ca Influx in a Transformed CHO Cell Line Expressing Human TRPV1
(a) Establishment of a Transformed CHO Cell Line Expressing Human and Rat TRPV1
Human and rat vanilloid receptor 1 (hTRPV1 and rTRPV1) cDNA was cloned from human brain and rat dorsal root ganglion, respectively. The cloned TRPV1 cDNA was incorporated in a pCAGGS vector. The vector was introduced to a CHO-K1 cell line, thus performing transformation. Clones obtained by limiting dilution were stimulated with capsaicin. Clones with a high responsiveness were selected using an increase in the Ca concentration as an indicator. The selected clones were used for the following experiment.
(b-1) Measurement of Ca Influx using FDSS-6000
The transformed CHO cells expressing human or rat TRPV1 were seeded in a 96-well plate (with black walls and transparent bottoms, manufactured by Greiner) at a density of 40,000 cells per well. The cells were cultured at 37° C. in 5% CO2 atmosphere for one night. A loading solution of FLIPR Calcium 3 assay kit (manufactured by Molecular Devices Corporation) containing 2.5 mmol/L of probenecid was then added to each of the wells in the same amount as the culture medium, and the cells were cultured at 37° C. for 60 minutes. For three minutes after the cells were stimulated with capsaicin (1 nmol/L to 1 μmol/L), the change of the intracellular Ca concentration was measured using FDSS-6000 (λex: 480 nm, λem: […], manufactured by Hamamatsu Photonics K.K.). The integrated values of the increase rate of the intracellular Ca concentration were calculated for a group treated with the compounds of the present invention and a group treated with a vehicle, thus allowing capsaicin concentration-reaction curves to be obtained. A concentration (A2 value) of each of the compounds of the present invention, at which the capsaicin concentration-reaction curve obtained when the cells were treated with the vehicle was shifted two times rightward, was calculated. The inhibitory effects of the test compounds were compared using this value as an indicator.

A short description of data set [1]: Effects on rectal temperature (8-1), oral administration to rats. Particulars: oral single doses of 3, 10 and 30 mg/kg; 30, 60 and 120 minutes; maximum absolute difference vs vehicle. The data set is classed as in vivo, rat. The protocol: (8-1) Effects on Rectal Temperature
A test compound was orally administered to rats at single doses of 3, 10 and 30 mg/kg. Then rectal temperature was measured 30, 60 and 120 minutes after administration.
Differences of the mean value between a group treated with test substance and a vehicle-treated group were calculated at all measuring points and, based on the maximum absolute value of differences, changes in rectal temperature were divided into the following three categories:
−: the maximum value was less than 0.5 degree Celsius +: the maximum value was more than 0.5 degree but less than 1.0 degree Celsius ++: the maximum value was more than 1.0 degree Celsius

T1 sequence (Q8NER1 whole entry): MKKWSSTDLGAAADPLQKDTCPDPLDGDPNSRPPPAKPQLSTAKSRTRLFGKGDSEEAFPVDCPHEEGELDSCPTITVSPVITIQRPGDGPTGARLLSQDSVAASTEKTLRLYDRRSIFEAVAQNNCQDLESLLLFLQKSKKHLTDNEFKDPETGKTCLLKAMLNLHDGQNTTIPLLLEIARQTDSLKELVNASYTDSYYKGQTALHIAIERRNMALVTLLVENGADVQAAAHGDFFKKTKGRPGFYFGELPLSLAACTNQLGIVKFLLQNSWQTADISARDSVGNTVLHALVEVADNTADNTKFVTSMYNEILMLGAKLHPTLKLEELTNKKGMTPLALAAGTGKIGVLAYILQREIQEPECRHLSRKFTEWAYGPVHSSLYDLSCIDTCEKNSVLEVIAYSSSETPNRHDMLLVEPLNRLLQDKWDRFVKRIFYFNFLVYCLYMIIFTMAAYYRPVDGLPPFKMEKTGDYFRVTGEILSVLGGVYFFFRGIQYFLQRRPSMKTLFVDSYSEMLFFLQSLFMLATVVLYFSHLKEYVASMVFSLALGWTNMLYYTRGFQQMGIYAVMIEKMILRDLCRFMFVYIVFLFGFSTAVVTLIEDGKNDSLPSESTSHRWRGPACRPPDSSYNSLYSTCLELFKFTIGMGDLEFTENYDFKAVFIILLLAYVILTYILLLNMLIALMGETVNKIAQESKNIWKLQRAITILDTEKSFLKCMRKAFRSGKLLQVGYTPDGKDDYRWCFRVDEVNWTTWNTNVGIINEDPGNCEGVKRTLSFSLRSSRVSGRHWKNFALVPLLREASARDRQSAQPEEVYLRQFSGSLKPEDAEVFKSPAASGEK

On to `O=C(/C=C1\CCCOc2cc(C(F)(F)F)ccc21)Nc1ccc2c(c1)NC(=O)C(N1CCOCC1)C2` (single isomer, unassigned) [EXAMPLE 35, (E)-2-(8-trifluoromethyl-3,4-dihydrobenzo[b]oxepin-5(2H)-ylidene)-N-(3-(4-morpholinyl)-3,4-dihydro-2(1H)-quinolinon-7-yl)acetamide], for which, at human TRPV1, the A2 value entry was “A (A2 value of less than 100 nM)”. In addition, the “Change in rectal temperature in rats” value in data set [1] is recorded as “− (the maximum value was less than 0.5 degree Celsius)”.
In the case of `CC1(C)C/C(=C\C(=O)Nc2ccc3c(c2)NC(=O)C(N2CCOCC2)C3)c2ccc(C(F)(F)F)cc2O1` (single isomer, unassigned) [Example 213, (E)-2-(7-trifluoromethyl-2,2-dimethylchroman-4-ylidene)-N-(3-(4-morpholinyl)-3,4-dihydro-2(1H)-quinolinon-7-yl)acetamide], the “Change in rectal temperature in rats” value in data set [1] is given as “− (the maximum value was less than 0.5 degree Celsius)”.
For the compound `CC1(C)Nc2ccc(NC(=O)/C=C3\CCCOc4cc(C(F)(F)F)ccc43)cc2NC1=O` [EXAMPLE 10, (E)-2-(8-trifluoromethyl-3,4-dihydrobenzo[b]oxepin-5(2H)-ylidene)-N-(3,3-dimethyl-3,4-dihydro-2(1H)-quinoxalinon-7-yl)acetamide], the A2 value result on human TRPV1 was “A (A2 value of less than 100 nM)”. Besides, the “Change in rectal temperature in rats” value in data set [1] was “+ (the maximum value was more than 0.5 degree but less than 1.0 degree Celsius)”.
For `O=C(/C=C1\CCCOc2cc(C(F)(F)F)ccc21)Nc1ccc2c(c1)NC(=O)NC2` [EXAMPLE 13, (E)-2-(8-trifluoromethyl-3,4-dihydrobenzo[b]oxepin-5(2H)-ylidene)-N-(3,4-dihydro-1H-quinazolin-2-on-7-yl)acetamide], in that order: “A (A2 value of less than 100 nM)” and “− (the maximum value was less than 0.5 degree Celsius)”.
Consider `CN1Cc2ccc(NC(=O)/C=C3\CCCOc4cc(C(F)(F)F)ccc43)cc2NC1=O` [EXAMPLE 14, (E)-2-(8-trifluoromethyl-3,4-dihydrobenzo[b]oxepin-5(2H)-ylidene)-N-(3-methyl-3,4-dihydro-2(1H)-quinazolinon-7-yl)acetamide], for which the “Change in rectal temperature in rats” value in data set [1] was “− (the maximum value was less than 0.5 degree Celsius)”.
On to `O=C(/C=C1\CCCOc2cc(C(F)(F)F)ccc21)Nc1ccc2c(c1)NC(=O)N(CCO)C2` [EXAMPLE 15, (E)-2-(8-trifluoromethyl-3,4-dihydrobenzo[b]oxepin-5(2H)-ylidene)-N-(3-(2-hydroxyethyl)-3,4-dihydro-2(1H)-quinazolinon-7-yl)acetamide], for which the A2 value entry on human TRPV1 was “A (A2 value of less than 100 nM)”. In addition, the “Change in rectal temperature in rats” value in data set [1] is “− (the maximum value was less than 0.5 degree Celsius)”.
For `O=C(/C=C1\CCOc2cc(C(F)(F)F)ccc21)Nc1ccc2c(c1)NC(=O)CC2` [EXAMPLE 23, (E)-2-(7-trifluoromethylchroman-4-ylidene)-N-(3,4-dihydroquinolin-2(1H)-on-7-yl)acetamide], in that order: “A (A2 value of less than 100 nM)” and “− (the maximum value was less than 0.5 degree Celsius)”.
Regarding `O=C(/C=C1\CCCOc2cc(C(F)(F)F)ccc21)Nc1ccc2c(c1)NC(=O)C(N1CCOCC1)C2` (stereo not shown) [EXAMPLE 30, (E)-2-(8-trifluoromethyl-3,4-dihydrobenzo[b]oxepin-5(2H)-ylidene)-N-(3-(4-morpholinyl)-3,4-dihydro-2(1H)-quinolinon-7-yl)acetamide], in data set [1], the “Change in rectal temperature in rats” value was “− (the maximum value was less than 0.5 degree Celsius)”.
As for `O=C(/C=C1\CCCOc2cc(C(F)(F)F)ccc21)Nc1ccc2c(c1)NC(=O)C(CCO)O2` (stereo not shown) [Example 3, (E)-2-(8-trifluoromethyl-3,4-dihydrobenzo[b]oxepin-5(2H)-ylidene)-N-(2-(2-hydroxyethyl)-4H-benzo[1,4]oxazin-3-on-6-yl)acetamide], the A2 value entry at human TRPV1 is “A (A2 value of less than 100 nM)”.
Same read-out and setting: for `O=C(/C=C1\CCCOc2cc(C(F)(F)F)ccc21)Nc1ccc2c(c1)NC(=O)CS2` [Example 4, (E)-2-(8-trifluoromethyl-3,4-dihydrobenzo[b]oxepin-5(2H)-ylidene)-N-(2H-benzo[1,4]thiazin-3(4H)-on-6-yl)acetamide] the value was “A (A2 value of less than 100 nM)”.
For the compound `O=C(/C=C1\CCCOc2cc(C(F)(F)F)ccc21)Nc1ccc2c(c1)NC(=O)C[S+]2[O-]` (stereo not shown) [Example 5, (E)-2-(B-trifluoromethyl-3,4-dihydrobenzo[b]oxepin-5(2H)-ylidene)-N-(1-oxo-2H-benzo[1,4]thiazin-3(4H)-on-6-yl)acetamide], the A2 value result on human TRPV1 is recorded as “B (A2 value of 100 nM or more)”.
Same read-out and setting: next, `O=C(/C=C1\CCCOc2cc(C(F)(F)F)ccc21)Nc1ccc2c(c1)NC(=O)CN2` [Example 7, (E)-2-(8-trifluoromethyl-3,4-dihydrobenzo[b]oxepin-5(2H)-ylidene)-N-(3,4-dihydro-2(1H)-quinoxalinon-7-yl)acetamide]: “A (A2 value of less than 100 nM)”; `O=C(/C=C1\CCCOc2cc(C(F)(F)F)ccc21)Nc1ccc2cc(N3CCOCC3)c(=O)[nH]c2c1` [Example 58, (E)-2-(8-trifluoromethyl-3,4-dihydrobenzo[b]oxepin-5(2H)-ylidene)-N-(3-(4-morpholinyl)-2(1H)-quinolinon-7-yl)acetamide]: “A (A2 value of less than 100 nM)”.
Still for that read-out and setting: next, `O=C(/C=C1\CCCOc2cc(C(F)(F)F)ccc21)Nc1ccc2c(c1)NS(=O)(=O)CC2` [Example 59, (E)-2-(8-trifluoromethyl-3,4-dihydrobenzo[b]oxepin-5(2H)-ylidene)-N-(2,2-dioxo-3,4-dihydro-(1H)-2,1-benzothiazin-7-yl)acetamide]: “A (A2 value of less than 100 nM)”.
For the compound `O=C(/C=C1\CCCOc2cc(C(F)(F)F)ccc21)Nc1ccc2cc(CO)c(=O)[nH]c2c1` [Example 93, (E)-2-(8-trifluoromethyl-3,4-dihydrobenzo[b]oxepin-5(2H)-ylidene)-N-(3-hydroxymethyl-2(1H)-quinolinon-7-yl)acetamide], the “Change in rectal temperature in rats” value in data set [1] is listed as “− (the maximum value was less than 0.5 degree Celsius)”.
The same measure, in the same setting: next, `CC1(C)C/C(=C\C(=O)Nc2ccc3c(c2)NC(=O)C3(C)C)c2ccc(C(F)(F)F)cc2O1` [Example 109, (E)-2-(7-trifluoromethyl-2,2-dimethylchroman-4-ylidene)-N-(3,3-dimethyl-2(1H)-indolinon-6-yl)acetamide]: “− (the maximum value was less than 0.5 degree Celsius)”.
The same measure, in the same setting: next, `CC1(C)C(=O)Nc2cc(NC(=O)/C=C3\CC4(CCC4)Oc4cc(C(F)(F)F)ccc43)ccc21` [Example 110, (E)-2-(7-trifluoromethyl-spiro[chroman-2,1′-cyclobutane]-4-ylidene)-N-(3,3-dimethyl-2(1H)-indolinon-6-yl)acetamide]: “− (the maximum value was less than 0.5 degree Celsius)”; `CN1C(=O)NCc2ccc(NC(=O)/C=C3\CCOc4cc(C(F)(F)F)ccc43)cc21` [Example 151, (E)-2-(7-trifluoromethyl-chroman-4-yliden)-N-(3,4-dihydro-1-methyl-2(1H)-quinazolinon-7-yl)acetamide]: “− (the maximum value was less than 0.5 degree Celsius)”; `CN1c2cc(NC(=O)/C=C3\CC4(CCC4)Oc4cc(C(F)(F)F)ccc43)ccc2CCS1(=O)=O` [Example 200, (E)-2-(7-trifluoromethyl-spiro[chroman-2,1′-cyclobutane]-4-ylidene)-N-(3,4-dihydro-2,2-dioxo-1-methyl-1H-2,1-benzothiazin-7-yl)acetamide]: “− (the maximum value was less than 0.5 degree Celsius)”.
With `O=C(/C=C1\CCCOc2cc(C(F)(F)F)ccc21)Nc1cccc2c1CCC(=O)N2` [compound 18, (E)-2-(8-trifluoromethyl-3,4-dihydrobenzo[b]oxepin-5(2H)-ylidene)-N-(3,4-dihydro-2(1H)-quinolinon-5-yl)acetamide], the A2 value result on human TRPV1 is given as “A (A2 value of less than 100 nM)”.

For the origin of these results see patent publication US20100016285A1, “HETEROCYCLIDENE-N-(ARYL) ACETAMIDE DERIVATIVE” (MOCHIDA PHARMACEUTICAL CO., LTD., priority 2007, published 2010).
